“Also recorded” adds a separate entry of the source.
How the values were obtained:
[1] = system: radial artery rings; assay type: cell-based, Human
[2] = system: radial artery tissue; assay: spontaneous contractility of radial artery tissue; assay type: cell-based, Human; conditions: radial artery tissue (FIG. 11A)
[3] = system: mammary artery samples; assay type: cell-based, Human
[4] = system: endothelial mediated relaxation
[5] = system: vascular smooth muscle; assay type: cell-based, Human

Row | Compound | effect on angiotensin II-induced contraction [1] | effect on spontaneous contraction [2] | concentration most effective at inhibiting angiotensin II induced contraction [3] | concentration most effective at inhibiting adrenaline-mediated contraction [1] | effect on dose response curves to adrenaline, angiotensin II or PGF2α [1] | effect on subsequent vasoconstrictor responses (in words) [1] | incubation time at which toxin is effective in inhibiting adrenaline-induced vasoconstriction [1] | inhibition of contraction, depending on the vasoconstrictor [1] | endothelial mediated relaxation after incubation with toxin [4] | optimal concentration most effective at reducing contractile activity [5]
1 | CC(COc1ccccc1)N(CCCl)Cc1ccccc1 (stereo not shown) [phenoxybenzamine, Phenoxybenzamine, reference compound] | no inhibitory effect | no effect; also recorded: lack of effect | – | – | – | – | – | – | – | –
2 | cholera toxin | – | – | 0.57 µM | 25 µg/mL | inhibited the contraction | inhibit the maximal contraction force produced and the sensitivity | 30 min | 15-50% | no impairment | about 0.6 μM; also recorded: about 51 μg/ml
3 | pertussis toxin | – | – | – | 50 µg/mL | inhibited the contraction | inhibit the maximal contraction force produced and the sensitivity | 60 min | 20-60% | no impairment | –
